In patent US7700644B2, “Isoflavonoid dimers” (Novogen Research Pty Ltd, priority 2005, dated 2010):

Tests used:
[1] = tested on: RK-13 (rabbit kidney) cells; test: Normal cell toxicity, MTT proliferation assay, rabbit kidney cells; format: cell-based; conditions: Oryctolagus cuniculus, 24 hrs
Description: Neonatal foreskin fibroblasts (NFF) were a gift from Dr. Peter Parsons (Queensland Institute of Medical Research). RK-13 (rabbit kidney) cells were obtained from Miller Whalley (Macquarie University). Both cell types were cultured in RPMI supplemented with 10% FCS (CSL, Australia), penicillin (100 U/ml), streptomycin ([…]), L-glutamine (2 mM) and sodium bicarbonate (1.2 g/L), and cultured at 37° C. in a humidified atmosphere of 5% CO2.
(§1) IC50 values were determined for each cell line. Cells were seeded in 96-well plates at an appropriate cell density as determined from growth kinetics analysis. NFFs were cultured for 5 days and RK-13s for 24 hrs in the absence and presence of the test compounds. Cell proliferation was assessed after the addition of 20 μl of 3-4,5 dimethylthiazol-2,5-diphenyl tetrazolium bromide (MTT, 2.5 mg/ml in PBS, Sigma) for 3-4 hrs at 37° C. according to manufacturer's instructions. IC50 values were calculated from semi-log plots of % of control proliferation on the y-axis against log dose on the x-axis.

PC3 (Prostate) = test: In vitro cytotoxicity, MTT proliferation assay, PC3; format: cell-based, human; conditions: Homo sapiens
Description: (§2) The human pancreatic cancer cell line, HPAC (CRL-2119) was routinely cultured in 1:1 mixture DMEM (Sigma) plus Ham's F12 (Sigma) medium containing HEPES (15 mM), insulin (0.002 mg/ml), transferrin (0.005 mg/ml), hydrocortisone, (40 ng/ml), epidermal growth factor (10 ng/ml). The ovarian cancer cell line CP70 was obtained as a gift from Dr. Gil Mor (Yale University) and cultured in a 1:1 mixture DMEM plus Ham's F12 medium, and SKOV-3 was purchased from ATCC and cultured in McCoy's 5a medium. The breast cancer cell line MDA-MB-468 cultured in Leibovitz's L-15 medium.
(§3) All cultures were supplemented with 10% FCS(CSL, Australia), penicillin (100 U/ml), streptomycin ([…]), L-glutamine (2 mM) and sodium bicarbonate (1.2 g/L), and cultured at 37° C. in a humidified atmosphere of 5% CO2. All remaining cell lines were purchased from ATCC (Maryland, USA) except where noted.
as §1

MCF-7 (Breast) = test: In vitro cytotoxicity, MTT proliferation assay, MCF-7; format: cell-based, human; conditions: Homo sapiens, MCF7; Breast MCF-7
Description: as §2, §3, §1

[2] = tested on: breast cancer cell line MDA-MB-468; test: In vitro cytotoxicity, MTT proliferation assay, MDA-MB-468; format: cell-based, human; conditions: Homo sapiens; Breast MDA-MB-468
Description: as §2, §3, §1

CCRF-CEM (Leukemic) = test: In vitro cytotoxicity, MTT proliferation assay, CCRF-CEM; format: cell-based; conditions: Homo sapiens
Description: as §2, §3
as §1, with “NFFs were cultured for 5 days and RK-13s for 24 hrs in the absence and presence of the test compounds.” left out

NCI-H23 (Lung) = test: In vitro cytotoxicity, MTT proliferation assay, NCI-H23; format: cell-based; conditions: Homo sapiens
Description: as §2, §3
as §1, with “NFFs were cultured for 5 days and RK-13s for 24 hrs in the absence and presence of the test compounds.” left out

MM200 (Melanoma) = test: In vitro cytotoxicity, MTT proliferation assay, MM200; format: cell-based, human; conditions: Homo sapiens
Description: as §2, §3, §1

TXB2 synthesis = TXB2 synthesis in human monocytes incubated with LPS; format: cell-based; conditions: LPS 200 ng/mL, 18 hrs, dose responsive
Description: (§4) Human peripheral blood monocytes (from three separate individuals) were isolated from buffy coats by lymphoprep gradient separation of mononuclear cells followed by counter-current centrifugal elutriation (Demasi et al. 2000). The test compounds were dissolved in DMSO and added to fresh monocytes After 30 min, LPS was added to achieve a final concentration of 200 ng/mL. After incubation for 18 hrs at 37° C. in 5% CO2, supernatants were removed and PGE2, TXB2 (the stable hydrolysis product of TXA2) and TNFα production were measured by radioimmunoassay (RIA).

TNFα synthesis = TNFα synthesis in human monocytes incubated with LPS; format: cell-based; conditions: LPS 200 ng/mL, 18 hrs
Description: as §4

PGE2 = PGE2 in murine macrophages (RAW 264.7) stimulated with LPS; format: cell-based, mouse; conditions: RAW 264.7, LPS 50 ng/ml, 16 hrs, dose responsive
Description: (§5) The mouse macrophage cell line RAW 264.7 was cultured in DMEM supplemented with FCS, 2 mM glutamine and 50 U/ml penicillin/streptomycin. Subconfluent cells were detached from the flask by gentle scraping and 24-well plates seeded at 5×10^5 cells per well and allowed to adhere for 1 hr. Cells were then treated either test compounds (in 0.025% DMSO) or vehicle alone, and incubated for 1 hr. LPS 50 ng/ml (LPS —Sigma-Aldrich) was then added. After incubation for 16 hrs, culture media was collected and stored at −80° C. for ecosanoid and cytokine measurements using enzyme immunometric assays (PGE2 and TXB2—Cayman Chemical and TNFα—Becton Dickinson).

TXB2 = TXB2 in murine macrophages (RAW 264.7) stimulated with LPS; format: cell-based, mouse; conditions: RAW 264.7, LPS 50 ng/ml, 16 hrs, dose responsive
Description: as §5

HPAC (Pancreatic) cells = test: Chemosensitisation, combination with antineoplastic agent, HPAC; format: cell-based, human
Description: The utility of the dimeric compounds of the invention to act as a chemosensitiser when used in combination with an array of standard chemotherapeutic agents was assessed. Dimeric Cpd. 2 was applied to various colorectal and pancreatic cancer cell lines to investigate its synergy with standard chemotherapeutic agents including cisplatin, gemcitabine, paclitaxel, doxorubicin, camptothecin and topotecan.
The experiment as outlined in SOP-BD011 (Versions A and B) was used to screen three antineoplastic agents against a given cell line in any ‘one’ experiment (see for example Kanzawa et al., (1997)). The inherent design of the experiment allowed for three sequences of Cpd. 2 and an antineoplastic agent. • 1) Direct Sequence—Cells are treated with both Cpd. 2 and a single antineoplastic agent (combined) for 5 days. • 2) Cpd. 2 First (Forward) Sequence—Cells are treated for 24 hours with Cpd. 2 before replacing with a 24 hour antineoplastic agent treatment; drugs are then washed out and processed on Day 5. • 3) Reverse Sequence—The reverse order to experiment No. 2 above. i.e. a cytotoxin first sequence Results and Conclusions
All data was evaluated using the formulae of theoretic additivity incorporated into a three dimensional model, as described by Kanzawa et al. (1997). […]

COc1ccc(C23COc4c(ccc(O)c4C)C2C2c4ccc(O)c(C)c4OCC2c2cc(OC)c(OC)cc23)cc1OC (stereo not shown) [Cpd. 2, 4,9-Dihydroxy-14,15-dimethoxy-12a-(3′,4′-dimethoxyphenyl)-3,10-dimethyl-2,11-dioxa-(1H,12H)-6b,6c,12a,16b-tetrahydronaphtho[1,2-g]chrysene]
IC50 [1]: 36 ± 2.7 µM
IC50 (PC3 (Prostate)): 7.36 ± 1.35 µM
IC50 (MCF-7 (Breast)): 10.3 µM
IC50 [2]: 8.59 ± 0.35 µM
IC50 (CCRF-CEM (Leukemic)): 10.3 ± 1.33 µM
IC50 (NCI-H23 (Lung)): 16.4 µM
IC50 (MM200 (Melanoma)): 6.5 µM
effect on TXB2 synthesis (TXB2 synthesis): inhibited
effect on induction of TNFα (TNFα synthesis): inhibited
effect on PGE2 (PGE2): induced
effect on TXB2 (TXB2): inhibited
synergy with Gemcitabine (HPAC (Pancreatic) cells; Cpd. 2 concentrations greater than 5 μM): Synergy was not observed
synergy with Gemcitabine (HPAC (Pancreatic) cells; simultaneously (A) or 24 hour sequences (B,C)): synergistic cytotoxicity
